Data on two compounds can be found in ChEMBL document CHEMBL1121774, “Interaction of 5-ethynyl-2'-deoxyuridylate with thymidylate synthetase” (J Med Chem, 1981).

Structures are written as SMILES.

In assay [1] the target is T1, Thymidylate synthase (Lactobacillus casei) (UniProt P00469).
T1 sequence (whole entry): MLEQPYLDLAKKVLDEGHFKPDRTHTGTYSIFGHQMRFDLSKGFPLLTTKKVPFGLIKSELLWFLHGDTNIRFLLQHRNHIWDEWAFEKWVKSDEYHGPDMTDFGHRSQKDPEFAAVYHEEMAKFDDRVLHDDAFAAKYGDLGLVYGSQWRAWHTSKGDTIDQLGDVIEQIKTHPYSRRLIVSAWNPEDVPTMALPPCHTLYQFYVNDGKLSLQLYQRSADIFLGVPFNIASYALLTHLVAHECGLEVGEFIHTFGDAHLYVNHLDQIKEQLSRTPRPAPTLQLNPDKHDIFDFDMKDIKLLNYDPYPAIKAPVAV
Briefly: Binding of 0.1 mM [14C]5,10-CH2-H4 folate to 2.5 nmol dTMP synthetase from Lactobacillus casei. The settings on record: Lacticaseibacillus casei.

The target of assay [2] is T2, Thymidylate synthase (Lactobacillus casei, UniProt P00469).
T2 sequence (P00469 whole entry): T1 sequence (whole entry)
Briefly: The compound was tested for inhibition of dTMP synthetase from Lactobacillus casei. Also noted: species or system Lacticaseibacillus casei.

For `O=c1[nH]c(=O)n([C@H]2C[C@H](O)[C@@H](COP(=O)(O)O)O2)cc1F`, the dpm bound to protein in assay [1] was found to be 15500.
Broadly, the Ki is a dissociation constant, usually derived from enzyme kinetics or from competition with a known ligand. In assay [1], `C#Cc1cn([C@H]2C[C@H](O)[C@@H](COP(=O)(O)O)O2)c(=O)[nH]c1=O` gave a dpm bound to protein of 1110. For the same compound, the Ki in assay [2] was found to be 2700 nM.
